Reference: EP4745137A1 (Gluetacs Therapeutics (Shanghai) Co., Ltd., priority 2023, dated 2025)

Assays:
WEE1 = target: T1, WEE1 (Homo sapiens, UniProt P30291+Q96SW2); assay: Western-blot assay of substrate protein degradation in hPBMCs, WEE1; assay type: cell-based; conditions: 24 hours of compound treatment, compounds tested at 50 nM and 500 nM (concentration of the table not stated)
T1 construct: endogenous in cells; host or cells: hPBMCs (Milecell Biotechnologies)

IKZF1 = target: T2, IKZF1 (Homo sapiens, UniProt Q13422+Q96SW2); assay: Western-blot assay of substrate protein degradation in hPBMCs, IKZF1; assay type: cell-based; conditions: 24 hours of compound treatment, compounds tested at 50 nM and 500 nM (concentration of the table not stated)
T2 construct: endogenous in cells; host or cells: hPBMCs (Milecell Biotechnologies)

IKZF2 = target: T3, IKZF2 (Homo sapiens, UniProt Q96SW2+Q9UKS7); assay: Western-blot assay of substrate protein degradation in hPBMCs, IKZF2; assay type: cell-based; conditions: 24 hours of compound treatment, compounds tested at 50 nM and 500 nM (concentration of the table not stated)
T3 construct: endogenous in cells; host or cells: hPBMCs (Milecell Biotechnologies)

IKZF3 = target: T4, IKZF3 (Homo sapiens, UniProt Q96SW2+Q9UKT9); assay: Western-blot assay of substrate protein degradation in hPBMCs, IKZF3; assay type: cell-based; conditions: 24 hours of compound treatment, compounds tested at 50 nM and 500 nM (concentration of the table not stated)
T4 construct: endogenous in cells; host or cells: hPBMCs (Milecell Biotechnologies)

CK1α = target: T5, CK1α (Homo sapiens, UniProt P48729+Q96SW2); assay: Western-blot assay of substrate protein degradation in hPBMCs, CK1α; assay type: cell-based; conditions: 24 hours of compound treatment, compounds tested at 50 nM and 500 nM (concentration of the table not stated)
T5 construct: endogenous in cells; host or cells: hPBMCs (Milecell Biotechnologies)

GSPT1 = target: T6, GSPT1 (Homo sapiens, UniProt P15170+Q96SW2); assay: Western-blot assay of substrate protein degradation in hPBMCs, GSPT1; assay type: cell-based; conditions: 24 hours of compound treatment, compounds tested at 50 nM and 500 nM (concentration of the table not stated)
T6 construct: endogenous in cells; host or cells: hPBMCs (Milecell Biotechnologies)

[1] = target: T7, human Cereblon WT GST-tagged protein (Homo sapiens, UniProt Q96SW2); assay: CRBN-binding affinity by HTRF (CEREBLON BINDING kit); conditions: HTRF inhibitory activity, CEREBLON BINDING kit; read-out: HTRF IC50
T7 construct: purchased CISBIO 64BDCRBNPEH

MM.1R = assay: Tumor cell proliferation inhibition (CellTiter-Meiluncell Luminescent Cell Viability Assay), MM.1R; conditions: Homo sapiens, 96 h, read-out: inhibitory activity (IC50, nM) against tumor cells proliferation, MM.1R
Jurkat = assay: Tumor cell proliferation inhibition (CellTiter-Meiluncell Luminescent Cell Viability Assay), Jurkat; conditions: Homo sapiens, 96 h, read-out: inhibitory activity (IC50, nM) against tumor cells proliferation, Jurkat
CAL-62 = assay: Tumor cell proliferation inhibition (CellTiter-Meiluncell Luminescent Cell Viability Assay), CAL-62; conditions: Homo sapiens, CAL-62, 96 h, read-out: inhibitory activity (IC50, nM) against tumor cells proliferation, CAL-62
[2] = system: Human acute T lymphocytic leukemia cells (Molt-4); assay: Tumor cell proliferation inhibition (CellTiter-Meiluncell Luminescent Cell Viability Assay), Molt-4; conditions: MOLT-4, 96 h, read-out: inhibitory activity (IC50, nM) against tumor cells proliferation, Molt 4
NCI-H1975 = assay: Tumor cell proliferation inhibition (CellTiter-Meiluncell Luminescent Cell Viability Assay), NCI-H1975; conditions: Homo sapiens, NCI-H1975, 96 h, read-out: inhibitory activity (IC50, nM) against tumor cells proliferation, H1975
[3] = system: Human breast cancer cells (MDA-MB-231); assay: Tumor cell proliferation inhibition (CellTiter-Meiluncell Luminescent Cell Viability Assay), MDA-MB-231; conditions: MDA-MB-231, 96 h, read-out: inhibitory activity (IC50, nM) against tumor cells proliferation, MDA-MB-231
Procedure: The tumor cells used herein were cultured in a cell culture medium listed in table 2 at 37°C in an incubator with 5% CO2. Prior to experimentation, all cell lines used were correctly identified by STR profiling, and tested negative for mycoplasma contamination using a mycoplasma detection kit through routine screenings.
On the following day, the test compounds of the present disclosure were subjected to serial dilution. […] Subsequently, 0.5 µL of the test compound dilution was transferred into the 96-well plate containing the cells, with each well containing 100 µL of cell culture medium. […] Into the 96-well plate, the diluted test compounds and corresponding detection reagents were added, resulting in final test compound concentrations of 500 nM and 10 nM, respectively. The experimental procedure is described below using the diluted 2 µM test compound as an example.
After the cells were treated with the compounds of the present disclosure for a specified period (the treatment durations were shown in Table 3), the cell viability assay reagent was added to the culture medium according to the kit's instructions to determine cell viability. […] All controls were treated using the same procedure as the compounds of the present disclosure. The growth inhibition curves for the compounds of the present disclosure were plotted using Prism GraphPad software, and the IC50 values were calculated therefrom.

T3 sequence (Q9UKS7 whole entry): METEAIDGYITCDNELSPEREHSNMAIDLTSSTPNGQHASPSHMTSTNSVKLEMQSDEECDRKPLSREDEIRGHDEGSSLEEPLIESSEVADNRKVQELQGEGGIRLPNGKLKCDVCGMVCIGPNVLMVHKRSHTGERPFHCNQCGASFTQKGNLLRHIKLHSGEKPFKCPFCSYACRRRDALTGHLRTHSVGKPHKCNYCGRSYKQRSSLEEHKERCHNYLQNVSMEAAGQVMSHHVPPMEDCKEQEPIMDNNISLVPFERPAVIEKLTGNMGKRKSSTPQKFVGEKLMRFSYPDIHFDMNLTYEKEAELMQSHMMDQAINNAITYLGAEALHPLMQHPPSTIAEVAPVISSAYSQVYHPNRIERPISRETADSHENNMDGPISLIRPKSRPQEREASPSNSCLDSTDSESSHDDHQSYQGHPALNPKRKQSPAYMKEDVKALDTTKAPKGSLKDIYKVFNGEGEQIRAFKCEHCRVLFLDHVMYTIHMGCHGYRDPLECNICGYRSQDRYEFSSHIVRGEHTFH
T3 sequence (Q96SW2 whole entry): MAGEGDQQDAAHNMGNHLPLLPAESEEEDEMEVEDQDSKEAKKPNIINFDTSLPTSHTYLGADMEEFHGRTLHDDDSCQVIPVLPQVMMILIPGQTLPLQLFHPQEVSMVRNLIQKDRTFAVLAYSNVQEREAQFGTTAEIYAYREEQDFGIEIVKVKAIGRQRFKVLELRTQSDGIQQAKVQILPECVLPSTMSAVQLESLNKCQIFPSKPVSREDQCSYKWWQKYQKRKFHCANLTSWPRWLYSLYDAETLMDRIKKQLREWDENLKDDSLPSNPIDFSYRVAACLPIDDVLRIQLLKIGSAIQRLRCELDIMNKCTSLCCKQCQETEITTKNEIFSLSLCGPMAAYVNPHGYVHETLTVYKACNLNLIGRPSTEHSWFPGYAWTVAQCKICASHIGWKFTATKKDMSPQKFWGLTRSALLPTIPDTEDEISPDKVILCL
T3 sequence (Q16531 whole entry partner): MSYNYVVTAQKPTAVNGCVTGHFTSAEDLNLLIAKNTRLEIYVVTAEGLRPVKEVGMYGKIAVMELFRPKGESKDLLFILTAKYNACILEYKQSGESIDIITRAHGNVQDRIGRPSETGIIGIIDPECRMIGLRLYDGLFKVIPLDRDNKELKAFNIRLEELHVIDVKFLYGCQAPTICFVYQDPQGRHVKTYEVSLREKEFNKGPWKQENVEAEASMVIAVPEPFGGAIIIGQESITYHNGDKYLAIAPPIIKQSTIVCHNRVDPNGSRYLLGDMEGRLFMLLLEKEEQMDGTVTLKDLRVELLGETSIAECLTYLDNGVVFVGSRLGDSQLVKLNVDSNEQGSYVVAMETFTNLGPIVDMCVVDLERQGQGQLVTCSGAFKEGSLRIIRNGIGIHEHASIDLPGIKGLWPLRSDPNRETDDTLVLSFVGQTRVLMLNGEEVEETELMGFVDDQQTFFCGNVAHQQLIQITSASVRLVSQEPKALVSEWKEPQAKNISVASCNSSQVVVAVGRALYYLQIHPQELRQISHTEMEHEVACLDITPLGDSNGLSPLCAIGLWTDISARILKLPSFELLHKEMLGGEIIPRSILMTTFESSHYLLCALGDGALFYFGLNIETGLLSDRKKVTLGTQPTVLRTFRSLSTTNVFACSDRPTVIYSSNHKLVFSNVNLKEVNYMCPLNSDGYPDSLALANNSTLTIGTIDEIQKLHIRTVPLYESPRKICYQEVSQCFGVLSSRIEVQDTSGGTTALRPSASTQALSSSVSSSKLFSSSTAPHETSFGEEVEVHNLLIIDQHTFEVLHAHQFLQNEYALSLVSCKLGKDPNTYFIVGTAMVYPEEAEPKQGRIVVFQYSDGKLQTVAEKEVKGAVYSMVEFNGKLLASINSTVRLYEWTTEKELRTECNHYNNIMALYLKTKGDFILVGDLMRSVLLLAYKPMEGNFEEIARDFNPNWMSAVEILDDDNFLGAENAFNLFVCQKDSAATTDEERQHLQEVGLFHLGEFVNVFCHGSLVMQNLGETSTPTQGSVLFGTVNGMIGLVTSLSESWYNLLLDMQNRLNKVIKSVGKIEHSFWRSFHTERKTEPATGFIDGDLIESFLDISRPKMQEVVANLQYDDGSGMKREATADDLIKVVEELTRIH
T1 sequence (P30291 whole entry): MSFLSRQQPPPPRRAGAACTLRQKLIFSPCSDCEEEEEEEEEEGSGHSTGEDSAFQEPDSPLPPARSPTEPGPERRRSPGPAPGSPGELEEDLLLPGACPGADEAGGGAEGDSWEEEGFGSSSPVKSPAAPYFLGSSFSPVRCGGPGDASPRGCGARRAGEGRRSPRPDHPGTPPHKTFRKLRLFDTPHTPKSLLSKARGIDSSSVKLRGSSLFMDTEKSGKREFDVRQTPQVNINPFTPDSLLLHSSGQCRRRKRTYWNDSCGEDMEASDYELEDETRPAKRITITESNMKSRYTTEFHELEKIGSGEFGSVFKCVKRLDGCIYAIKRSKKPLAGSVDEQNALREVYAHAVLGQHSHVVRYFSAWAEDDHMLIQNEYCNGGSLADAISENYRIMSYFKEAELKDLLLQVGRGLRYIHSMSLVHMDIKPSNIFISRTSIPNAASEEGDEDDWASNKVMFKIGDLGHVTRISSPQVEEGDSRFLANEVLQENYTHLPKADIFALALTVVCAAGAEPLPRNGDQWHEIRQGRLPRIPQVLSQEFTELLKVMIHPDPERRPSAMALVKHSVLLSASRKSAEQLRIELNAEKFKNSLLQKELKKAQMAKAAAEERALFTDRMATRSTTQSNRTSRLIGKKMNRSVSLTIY
T1 sequence (Q96SW2 whole entry): as the sequence (Q96SW2 whole entry) above
T1 sequence (Q16531 whole entry partner): as the sequence (Q16531 whole entry partner) above
T7 sequence (Q96SW2 whole entry): as the sequence (Q96SW2 whole entry) above
T5 sequence (P48729 whole entry): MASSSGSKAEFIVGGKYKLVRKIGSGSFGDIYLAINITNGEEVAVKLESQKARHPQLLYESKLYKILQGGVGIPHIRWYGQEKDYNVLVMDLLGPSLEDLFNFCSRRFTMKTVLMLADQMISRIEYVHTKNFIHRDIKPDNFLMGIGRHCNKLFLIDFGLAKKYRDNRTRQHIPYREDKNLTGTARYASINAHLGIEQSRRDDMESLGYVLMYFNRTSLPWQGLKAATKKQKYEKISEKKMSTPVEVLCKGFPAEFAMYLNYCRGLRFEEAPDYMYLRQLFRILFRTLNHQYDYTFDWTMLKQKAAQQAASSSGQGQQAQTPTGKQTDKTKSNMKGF
T5 sequence (Q96SW2 whole entry): as the sequence (Q96SW2 whole entry) above
T5 sequence (Q16531 whole entry partner): as the sequence (Q16531 whole entry partner) above
T6 sequence (P15170 whole entry): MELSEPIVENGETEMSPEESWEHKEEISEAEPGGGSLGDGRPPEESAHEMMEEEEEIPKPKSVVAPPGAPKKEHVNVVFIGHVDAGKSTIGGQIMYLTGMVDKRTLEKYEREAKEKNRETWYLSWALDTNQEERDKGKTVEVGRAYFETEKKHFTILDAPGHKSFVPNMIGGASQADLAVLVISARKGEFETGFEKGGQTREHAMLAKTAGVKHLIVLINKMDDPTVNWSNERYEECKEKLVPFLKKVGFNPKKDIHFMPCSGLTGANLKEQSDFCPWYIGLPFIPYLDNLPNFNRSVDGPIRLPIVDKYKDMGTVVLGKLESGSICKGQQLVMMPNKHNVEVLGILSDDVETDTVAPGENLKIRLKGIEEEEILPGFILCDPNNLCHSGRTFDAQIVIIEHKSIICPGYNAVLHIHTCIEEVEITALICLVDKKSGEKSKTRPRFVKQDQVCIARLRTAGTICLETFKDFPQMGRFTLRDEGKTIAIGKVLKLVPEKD
T6 sequence (Q96SW2 whole entry): as the sequence (Q96SW2 whole entry) above
T6 sequence (Q16531 whole entry partner): as the sequence (Q16531 whole entry partner) above
T2 sequence (Q13422 whole entry): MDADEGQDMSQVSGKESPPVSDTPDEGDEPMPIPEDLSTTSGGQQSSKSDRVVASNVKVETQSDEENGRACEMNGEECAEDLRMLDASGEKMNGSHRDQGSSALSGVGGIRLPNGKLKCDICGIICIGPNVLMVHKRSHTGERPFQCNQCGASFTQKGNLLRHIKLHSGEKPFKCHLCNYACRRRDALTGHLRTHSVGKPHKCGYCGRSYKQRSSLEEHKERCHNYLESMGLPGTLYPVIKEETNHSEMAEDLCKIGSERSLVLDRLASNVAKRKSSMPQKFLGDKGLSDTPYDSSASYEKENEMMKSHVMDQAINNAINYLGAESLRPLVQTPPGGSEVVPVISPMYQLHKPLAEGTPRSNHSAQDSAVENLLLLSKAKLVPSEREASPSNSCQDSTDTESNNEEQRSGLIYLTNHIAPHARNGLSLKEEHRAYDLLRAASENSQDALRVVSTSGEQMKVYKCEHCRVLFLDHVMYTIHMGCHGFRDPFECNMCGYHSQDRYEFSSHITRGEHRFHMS
T2 sequence (Q96SW2 whole entry): as the sequence (Q96SW2 whole entry) above
T2 sequence (Q16531 whole entry partner): as the sequence (Q16531 whole entry partner) above

SMILES | Weel substrate protein remaining % (WEE1) | IKZF 1 substrate protein remaining % (IKZF1) | IKZF2 substrate protein remaining % (IKZF2) | IKZF3 substrate protein remaining % (IKZF3) | CK1a substrate protein remaining % (CK1α) | GSPT1 substrate protein remaining % (GSPT1) | IC50 [1] [nM] | IC50 (MM.1R) [nM] | IC50 (Jurkat) [nM] | IC50 (CAL-62) [nM] | IC50 [2] [nM] | IC50 (NCI-H1975) [nM] | IC50 [3] [nM]
O=C1CCC(N2Cc3cc(CN4CC=C(c5ccnc(Cl)c5Cl)CC4)ccc3C2=O)C(=O)N1 (stereo not shown) [GT-04559, 3-(5-((2',3'-dichloro-3,6-dihydro-[4,4'-bipyridin]-1(2H)-yl)methyl)-1-oxoisoindolin-2-yl)piperidine-2,6-dione] | A (0% ≤ substrate protein remaining % ≤ 80%) | A (0% ≤ substrate protein remaining % ≤ 80%) | A (0% ≤ substrate protein remaining % ≤ 80%) | A (0% ≤ substrate protein remaining % ≤ 80%) | A (0% ≤ substrate protein remaining % ≤ 80%) | A (0% ≤ substrate protein remaining % ≤ 80%) | < 500 | 1 to 5 | 1 to 5 | 1 to 5 | 1 to 5 | 10 to 50 | 10 to 50
O=C1CCC(N2Cc3cc(CN4CCN(c5cc(F)ccc5F)CC4)ccc3C2=O)C(=O)N1 (stereo not shown) [GT-04539, 3-(5-((4-(2,5-difluorophenyl)piperazin-1-yl)methyl)-1-oxoisoindolin-2-yl)piperidine-2,6-dione] | A (0% ≤ substrate protein remaining % ≤ 80%) | A (0% ≤ substrate protein remaining % ≤ 80%) | A (0% ≤ substrate protein remaining % ≤ 80%) | A (0% ≤ substrate protein remaining % ≤ 80%) | A (0% ≤ substrate protein remaining % ≤ 80%) | A (0% ≤ substrate protein remaining % ≤ 80%) | 500 to 1000 | 10 to 50 | 10 to 50 | 50 to 100 | 10 to 50 | – | –
O=C1CCC(N2Cc3cc(CN4CCN(c5cccc(Cl)c5Cl)CC4)c(F)cc3C2=O)C(=O)N1 (stereo not shown) [GT-04527, 3-(5-((4-(2,3-dichlorophenyl)piperazin-1-yl)methyl)-6-fluoro-1-oxoisoindolin-2-yl)piperidine-2,6-dione] | A (0% ≤ substrate protein remaining % ≤ 80%) | B (80%< substrate protein remaining %≤ 100%) | A (0% ≤ substrate protein remaining % ≤ 80%) | A (0% ≤ substrate protein remaining % ≤ 80%) | A (0% ≤ substrate protein remaining % ≤ 80%) | A (0% ≤ substrate protein remaining % ≤ 80%) | – | 5 to 10 | 500 to 1000 | 1 to 5 | 1 to 5 | 10 to 50 | 10 to 50
O=C1CCC(N2Cc3cc(CN4CCN(c5nccc(Cl)c5Cl)CC4)ccc3C2=O)C(=O)N1 (stereo not shown) [GT-04532, 3-(5-((4-(3,4-dichloropyridin-2-yl)piperazin-1-yl)methyl)-1-oxoisoindolin-2-yl)piperidine-2,6-dione] | A (0% ≤ substrate protein remaining % ≤ 80%) | A (0% ≤ substrate protein remaining % ≤ 80%) | A (0% ≤ substrate protein remaining % ≤ 80%) | A (0% ≤ substrate protein remaining % ≤ 80%) | A (0% ≤ substrate protein remaining % ≤ 80%) | A (0% ≤ substrate protein remaining % ≤ 80%) | 500 to 1000 | 10 to 50 | 10 to 50 | 10 to 50 | 10 to 50 | – | –
O=C1CCC(N2Cc3cc(CN4CCC(c5ccnc(Cl)c5Cl)CC4)ccc3C2=O)C(=O)N1 (stereo not shown) [GT-04560, 3-(5-((4-(2,3-dichloropyridin-4-yl)piperidin-1-yl)methyl)-1-oxoisoindolin-2-yl)piperidine-2,6-dione] | A (0% ≤ substrate protein remaining % ≤ 80%) | A (0% ≤ substrate protein remaining % ≤ 80%) | A (0% ≤ substrate protein remaining % ≤ 80%) | A (0% ≤ substrate protein remaining % ≤ 80%) | A (0% ≤ substrate protein remaining % ≤ 80%) | A (0% ≤ substrate protein remaining % ≤ 80%) | 500 to 1000 | 10 to 50 | 10 to 50 | 10 to 50 | 10 to 50 | – | –
O=C1CCC(N2Cc3cc(CN4CCN(c5c(F)cccc5F)CC4)ccc3C2=O)C(=O)N1 (stereo not shown) [GT-04540, 3-(5-((4-(2,6-difluorophenyl)piperazin-1-yl)methyl)-1-oxoisoindolin-2-yl)piperidine-2,6-dione] | A (0% ≤ substrate protein remaining % ≤ 80%) | A (0% ≤ substrate protein remaining % ≤ 80%) | A (0% ≤ substrate protein remaining % ≤ 80%) | A (0% ≤ substrate protein remaining % ≤ 80%) | B (80%< substrate protein remaining %≤ 100%) | A (0% ≤ substrate protein remaining % ≤ 80%) | 500 to 1000 | 100 to 500 | 50 to 100 | 100 to 500 | 50 to 100 | – | –
O=C1CCC(N2Cc3cc(CN4CCN(c5ccc(F)c(F)c5)CC4)ccc3C2=O)C(=O)N1 (stereo not shown) [GT-04529, 3-(5-((4-(3,4-difluorophenyl)piperazin-1-yl)methyl)-1-oxoisoindolin-2-yl)piperidine-2,6-dione] | A (0% ≤ substrate protein remaining % ≤ 80%) | A (0% ≤ substrate protein remaining % ≤ 80%) | A (0% ≤ substrate protein remaining % ≤ 80%) | A (0% ≤ substrate protein remaining % ≤ 80%) | A (0% ≤ substrate protein remaining % ≤ 80%) | A (0% ≤ substrate protein remaining % ≤ 80%) | 1500 to 1900 | 50 to 100 | 10 to 50 | 100 to 500 | 10 to 50 | – | –
Cc1ccc(N2CCN(Cc3ccc4c(c3)CN(C3CCC(=O)NC3=O)C4=O)CC2)s1 (stereo not shown) [GT-04546, 3-(5-((4-(5-methylthiophen-2-yl)piperazin-1-yl)methyl)-1-oxoisoindolin-2-yl)piperidine-2,6-dione] | A (0% ≤ substrate protein remaining % ≤ 80%) | A (0% ≤ substrate protein remaining % ≤ 80%) | A (0% ≤ substrate protein remaining % ≤ 80%) | A (0% ≤ substrate protein remaining % ≤ 80%) | A (0% ≤ substrate protein remaining % ≤ 80%) | A (0% ≤ substrate protein remaining % ≤ 80%) | 500 to 1000 | 100 to 500 | 50 to 100 | 10 to 50 | 100 to 500 | – | –
